Measurements as given in the supplement of paper PMC10307832.

What was measured:
Assay in all cases: relative viability (nuclei count vs DMSO), 5 days (fraction); higher = more cells survive
[1] = compound: Cc1cnc(Nc2ccc(OCCN3CCCC3)cc2)nc1Nc1cccc(S(=O)(=O)NC(C)(C)C)c1 [Fedratinib] + CC(=O)Nc1cccc(-n2c(=O)n(C3CC3)c(=O)c3c(Nc4ccc(I)cc4F)n(C)c(=O)c(C)c32)c1 [Trametinib] (partner 0.02 µM)
Summary of the method: (§1)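 Medians of duplicate plates are given as relative viability. That measure is the nuclei count in treated wells divided by the count in vehicle wells. Counts were taken on 4× images of lung cancer cell lines in 1536-well plates, 5 days after pin-tool dosing the day after seeding with one drug alone or a fixed anchor-drug dose plus five library-drug doses (not always all listed) in √10 steps.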

[2] = compound: COC1=CC=C(C=C1)COC2=C(C=C(C=C2)CC3=CN=C(N=C3N)N)OC [GW-2580] + CS(=O)(=O)N1CCN(Cc2cc3nc(-c4cccc5[nH]ncc45)nc(N4CCOCC4)c3s2)CC1 [Pictilisib] (partner 1 µM)
Summary of the method: as §1

[3] = compound: COC1=CC=C(C=C1)COC2=C(C=C(C=C2)CC3=CN=C(N=C3N)N)OC [GW-2580] + O=C(CCCCCCC(=O)Nc1ccccc1)NO [Vorinostat] (partner 1 µM)
Summary of the method: as §1

[4] = compound: COC1=CC=C(C=C1)COC2=C(C=C(C=C2)CC3=CN=C(N=C3N)N)OC [GW-2580] + COc1cc2c(Oc3ccc(NC(=O)C4(C(=O)Nc5ccc(F)cc5)CC4)cc3F)ccnc2cc1OCCCN1CCOCC1 [Foretinib] (partner 0.25 µM)
Summary of the method: as §1

[5] = compound: Cc1cnc(Nc2ccc(OCCN3CCCC3)cc2)nc1Nc1cccc(S(=O)(=O)NC(C)(C)C)c1 [Fedratinib] + NC(=O)Nc1cc(-c2cccc(F)c2)sc1C(=O)N[C@H]1CCCNC1 [AZD7762] (partner 0.2 µM)
Summary of the method: as §1

With NCI-H1650 the relative viability ([1]; first compound 0.1 µM) was 0.534, the relative viability ([1]; first compound 0.3162 µM) was 0.545 and the relative viability ([1]; first compound 1 µM) was 0.642. It also gave a relative viability ([2]; first compound 0.08 µM) of 0.644, a relative viability ([2]; first compound 0.8 µM) of 0.564 and a relative viability ([2]; first compound 2.53 µM) of 0.454. It also gave a relative viability ([2]; first compound 8 µM) of 0.601, a relative viability ([3]; first compound 0.08 µM) of 0.541 and a relative viability ([3]; first compound 0.8 µM) of 0.901. For the same cell line, the relative viability ([3]; first compound 2.53 µM) was 0.457, the relative viability ([3]; first compound 8 µM) was 0.586 and the relative viability ([4]; first compound 0.08 µM) was 1.29. It also gave a relative viability ([4]; first compound 0.8 µM) of 1.43, a relative viability ([4]; first compound 2.53 µM) of 1.19 and a relative viability ([4]; first compound 8 µM) of 1.05.
With NCI-H1703 the relative viability ([5]; first compound 0.1 µM) was 0.126, the relative viability ([5]; first compound 0.3162 µM) was 0.138 and the relative viability ([5]; first compound 1 µM) was 0.121. For the same cell line, the relative viability ([2]; first compound 0.08 µM) was 0.218, the relative viability ([2]; first compound 0.8 µM) was 0.295 and the relative viability ([2]; first compound 2.53 µM) was 0.267. The relative viability ([2]; first compound 8 µM) was 0.234, the relative viability ([4]; first compound 0.08 µM) was 0.404 and the relative viability ([4]; first compound 0.8 µM) was 0.378. For the same cell line, the relative viability ([4]; first compound 2.53 µM) was 0.346 and the relative viability ([4]; first compound 8 µM) was 0.342.
For NCI-H1792, the relative viability ([1]; first compound 0.1 µM) was 0.365, the relative viability ([1]; first compound 0.3162 µM) was 0.364 and the relative viability ([1]; first compound 1 µM) was 0.449. For the same cell line, the relative viability ([5]; first compound 0.1 µM) was 0.58, the relative viability ([5]; first compound 0.3162 µM) was 0.774 and the relative viability ([5]; first compound 1 µM) was 0.483. It also gave a relative viability ([2]; first compound 0.08 µM) of 0.279, a relative viability ([2]; first compound 0.8 µM) of 0.272 and a relative viability ([2]; first compound 2.53 µM) of 0.171. The relative viability ([2]; first compound 8 µM) was 0.223.
Cell Line NCI-H2009 has a relative viability ([1]; first compound 0.1 µM) of 0.204, a relative viability ([1]; first compound 0.3162 µM) of 0.286 and a relative viability ([1]; first compound 1 µM) of 0.216. It also gave a relative viability ([2]; first compound 0.08 µM) of 0.924, a relative viability ([2]; first compound 0.8 µM) of 0.982 and a relative viability ([2]; first compound 2.53 µM) of 0.652. For the same cell line, the relative viability ([2]; first compound 8 µM) was 0.809, the relative viability ([3]; first compound 0.08 µM) was 0.774 and the relative viability ([3]; first compound 0.8 µM) was 0.834. It also gave a relative viability ([3]; first compound 2.53 µM) of 0.702, a relative viability ([3]; first compound 8 µM) of 0.679 and a relative viability ([4]; first compound 0.08 µM) of 1.31. It also gave a relative viability ([4]; first compound 0.8 µM) of 1.25, a relative viability ([4]; first compound 2.53 µM) of 1.21 and a relative viability ([4]; first compound 8 µM) of 1.17.
With NCI-H2023 the relative viability ([1]; first compound 0.1 µM) was 0.588, the relative viability ([1]; first compound 0.3162 µM) was 0.626 and the relative viability ([1]; first compound 1 µM) was 0.488. For the same cell line, the relative viability ([2]; first compound 0.08 µM) was 0.241, the relative viability ([2]; first compound 0.8 µM) was 0.257 and the relative viability ([2]; first compound 2.53 µM) was 0.217. For the same cell line, the relative viability ([2]; first compound 8 µM) was 0.216, the relative viability ([3]; first compound 0.08 µM) was 0.812 and the relative viability ([3]; first compound 0.8 µM) was 0.882. It also gave a relative viability ([3]; first compound 2.53 µM) of 0.598, a relative viability ([3]; first compound 8 µM) of 0.762 and a relative viability ([4]; first compound 0.08 µM) of 0.735. It also gave a relative viability ([4]; first compound 0.8 µM) of 1.02, a relative viability ([4]; first compound 2.53 µM) of 0.841 and a relative viability ([4]; first compound 8 µM) of 0.779.
With NCI-H2228 the relative viability ([1]; first compound 0.1 µM) was 0.629, the relative viability ([1]; first compound 0.3162 µM) was 0.306 and the relative viability ([1]; first compound 1 µM) was 0.404. The relative viability ([2]; first compound 0.08 µM) was 0.425, the relative viability ([2]; first compound 0.8 µM) was 0.285 and the relative viability ([2]; first compound 2.53 µM) was 0.327. The relative viability ([2]; first compound 8 µM) was 0.417, the relative viability ([3]; first compound 0.08 µM) was 0.605 and the relative viability ([3]; first compound 0.8 µM) was 0.759. The relative viability ([3]; first compound 2.53 µM) was 0.539, the relative viability ([3]; first compound 8 µM) was 0.509 and the relative viability ([4]; first compound 0.08 µM) was 0.947. For the same cell line, the relative viability ([4]; first compound 0.8 µM) was 0.95, the relative viability ([4]; first compound 2.53 µM) was 0.879 and the relative viability ([4]; first compound 8 µM) was 0.848.
NCI-H2342 showed a relative viability ([1]; first compound 0.1 µM) of 0.858, a relative viability ([1]; first compound 0.3162 µM) of 1.1 and a relative viability ([1]; first compound 1 µM) of 1.01. The relative viability ([5]; first compound 0.1 µM) was 0.443, the relative viability ([5]; first compound 0.3162 µM) was 0.528 and the relative viability ([5]; first compound 1 µM) was 0.56. For the same cell line, the relative viability ([3]; first compound 0.08 µM) was 0.711, the relative viability ([3]; first compound 0.8 µM) was 0.75 and the relative viability ([3]; first compound 2.53 µM) was 0.625. For the same cell line, the relative viability ([3]; first compound 8 µM) was 0.751, the relative viability ([4]; first compound 0.08 µM) was 1.02 and the relative viability ([4]; first compound 0.8 µM) was 1.05. It also gave a relative viability ([4]; first compound 2.53 µM) of 0.942 and a relative viability ([4]; first compound 8 µM) of 1.07.
Cell Line SK-LU-1 has a relative viability ([1]; first compound 0.1 µM) of 0.498, a relative viability ([1]; first compound 0.3162 µM) of 0.454 and a relative viability ([1]; first compound 1 µM) of 0.479. For the same cell line, the relative viability ([2]; first compound 0.08 µM) was 0.621, the relative viability ([2]; first compound 0.8 µM) was 0.63 and the relative viability ([2]; first compound 2.53 µM) was 0.461. For the same cell line, the relative viability ([2]; first compound 8 µM) was 0.557, the relative viability ([3]; first compound 0.08 µM) was 0.924 and the relative viability ([3]; first compound 0.8 µM) was 0.918. It also gave a relative viability ([3]; first compound 2.53 µM) of 0.648, a relative viability ([3]; first compound 8 µM) of 0.734 and a relative viability ([4]; first compound 0.08 µM) of 0.823. For the same cell line, the relative viability ([4]; first compound 0.8 µM) was 0.934, the relative viability ([4]; first compound 2.53 µM) was 0.708 and the relative viability ([4]; first compound 8 µM) was 0.816.
Cell Line SK-MES-1 has a relative viability ([1]; first compound 0.1 µM) of 0.547, a relative viability ([1]; first compound 0.3162 µM) of 0.581 and a relative viability ([1]; first compound 1 µM) of 0.476. For the same cell line, the relative viability ([2]; first compound 0.08 µM) was 0.34, the relative viability ([2]; first compound 0.8 µM) was 0.381 and the relative viability ([2]; first compound 2.53 µM) was 0.355. It also gave a relative viability ([2]; first compound 8 µM) of 0.324, a relative viability ([3]; first compound 0.08 µM) of 1.31 and a relative viability ([3]; first compound 0.8 µM) of 1.33. The relative viability ([3]; first compound 2.53 µM) was 0.993, the relative viability ([3]; first compound 8 µM) was 1.16 and the relative viability ([4]; first compound 0.08 µM) was 1.03. The relative viability ([4]; first compound 0.8 µM) was 0.934, the relative viability ([4]; first compound 2.53 µM) was 0.962 and the relative viability ([4]; first compound 8 µM) was 0.915.
Cell Line SW 900 has a relative viability ([1]; first compound 0.1 µM) of 0.748, a relative viability ([1]; first compound 0.3162 µM) of 0.802 and a relative viability ([1]; first compound 1 µM) of 0.798. The relative viability ([5]; first compound 0.1 µM) was 0.621, the relative viability ([5]; first compound 0.3162 µM) was 0.692 and the relative viability ([5]; first compound 1 µM) was 0.608. It also gave a relative viability ([3]; first compound 0.08 µM) of 0.53, a relative viability ([3]; first compound 0.8 µM) of 0.517 and a relative viability ([3]; first compound 2.53 µM) of 0.419. For the same cell line, the relative viability ([3]; first compound 8 µM) was 0.528, the relative viability ([4]; first compound 0.08 µM) was 0.831 and the relative viability ([4]; first compound 0.8 µM) was 0.905. For the same cell line, the relative viability ([4]; first compound 2.53 µM) was 1.37 and the relative viability ([4]; first compound 8 µM) was 0.878.
Work on SW 1573 yielded a relative viability ([1]; first compound 0.1 µM) of 0.489, a relative viability ([1]; first compound 0.3162 µM) of 0.538 and a relative viability ([1]; first compound 1 µM) of 0.402. The relative viability ([2]; first compound 0.08 µM) was 0.442, the relative viability ([2]; first compound 0.8 µM) was 0.613 and the relative viability ([2]; first compound 2.53 µM) was 0.542. The relative viability ([2]; first compound 8 µM) was 0.536, the relative viability ([3]; first compound 0.08 µM) was 0.968 and the relative viability ([3]; first compound 0.8 µM) was 0.771. The relative viability ([3]; first compound 2.53 µM) was 0.626, the relative viability ([3]; first compound 8 µM) was 0.746 and the relative viability ([4]; first compound 0.08 µM) was 1.02. The relative viability ([4]; first compound 0.8 µM) was 1.02, the relative viability ([4]; first compound 2.53 µM) was 1.02 and the relative viability ([4]; first compound 8 µM) was 0.852.
